Laboratory results from PubChem BioAssay AID1918937 (Molecular Pharmacology Branch, DTP, NCI, 2023).

Test system: 521955-158-R2-J5-PDC complex spheroid viability
Assay: Anticancer human tumor 521955-158-R2-J5-PDC patient-derived pancreatic carcinoma cell line growth inhibition
Details: for IC50: curve of first compound; for viability, T/C: stronger effect = lower value; active = viability on the fitted dose curve at most 10% of control; inactive = the rest
Summary of the method: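 Drug combinations with the LSD1 inhibitor iadademstat tested on tumor cells co-cultured as spheroids with endothelial cells and mesenchymal stem cells. Concentrations descended in half-log increments from clinical Cmax or 10 microM.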

[1] = second compound 0.1 µM, first compound 0.000316 µM
[2] = second compound 0.1 µM, first compound 0.001 µM
[3] = second compound 0.1 µM, first compound 0.00316 µM
[4] = second compound 0.1 µM, first compound 0.01 µM
[5] = second compound 0.1 µM, first compound 0.0316 µM
[6] = second compound 0.1 µM, first compound 0.1 µM
[7] = second compound 0.316 µM, first compound 0.000316 µM
[8] = second compound 0.316 µM, first compound 0.001 µM
[9] = second compound 0.316 µM, first compound 0.00316 µM
[10] = second compound 0.316 µM, first compound 0.01 µM
[11] = second compound 0.316 µM, first compound 0.0316 µM
[12] = second compound 0.316 µM, first compound 0.1 µM
[13] = second compound 1 µM, first compound 0.000316 µM
[14] = second compound 1 µM, first compound 0.001 µM
[15] = second compound 1 µM, first compound 0.00316 µM
[16] = second compound 1 µM, first compound 0.01 µM
[17] = second compound 1 µM, first compound 0.0316 µM
[18] = second compound 1 µM, first compound 0.1 µM
[19] = second compound 3.16 µM, first compound 0.000316 µM
[20] = second compound 3.16 µM, first compound 0.001 µM
[21] = second compound 3.16 µM, first compound 0.00316 µM
[22] = second compound 3.16 µM, first compound 0.01 µM
[23] = second compound 3.16 µM, first compound 0.0316 µM
[24] = second compound 3.16 µM, first compound 0.1 µM
[25] = second compound 10 µM, first compound 0.000316 µM
[26] = second compound 10 µM, first compound 0.001 µM
[27] = second compound 10 µM, first compound 0.00316 µM
[28] = second compound 10 µM, first compound 0.01 µM
[29] = second compound 10 µM, first compound 0.0316 µM
[30] = second compound 10 µM, first compound 0.1 µM
[31] = second compound 0.1 µM, first compound 0.00949 µM
[32] = second compound 0.1 µM, first compound 0.03 µM
[33] = second compound 0.1 µM, first compound 0.0949 µM
[34] = second compound 0.1 µM, first compound 0.3 µM
[35] = second compound 0.1 µM, first compound 0.949 µM
[36] = second compound 0.1 µM, first compound 3 µM
[37] = second compound 0.316 µM, first compound 0.00949 µM
[38] = second compound 0.316 µM, first compound 0.03 µM
[39] = second compound 0.316 µM, first compound 0.0949 µM
[40] = second compound 0.316 µM, first compound 0.3 µM
[41] = second compound 0.316 µM, first compound 0.949 µM
[42] = second compound 0.316 µM, first compound 3 µM
[43] = second compound 1 µM, first compound 0.00949 µM
[44] = second compound 1 µM, first compound 0.03 µM
[45] = second compound 1 µM, first compound 0.0949 µM
[46] = second compound 1 µM, first compound 0.3 µM
[47] = second compound 1 µM, first compound 0.949 µM
[48] = second compound 1 µM, first compound 3 µM
[49] = second compound 3.16 µM, first compound 0.00949 µM
[50] = second compound 3.16 µM, first compound 0.03 µM
[51] = second compound 3.16 µM, first compound 0.0949 µM
[52] = second compound 3.16 µM, first compound 0.3 µM
[53] = second compound 3.16 µM, first compound 0.949 µM
[54] = second compound 3.16 µM, first compound 3 µM
[55] = second compound 10 µM, first compound 0.00949 µM
[56] = second compound 10 µM, first compound 0.03 µM
[57] = second compound 10 µM, first compound 0.0949 µM
[58] = second compound 10 µM, first compound 0.3 µM
[59] = second compound 10 µM, first compound 0.949 µM
[60] = second compound 10 µM, first compound 3 µM
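Also: spheroids exposed to agents for seven days.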
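For viability, T/C in this document: percent of DMSO vehicle control luminescence viability.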

CC(C)CC(NC(=O)C(Cc1ccccc1)NC(=O)c1cnccn1)B(O)O (stereo not given) + NC1CCC(NC2CC2c2ccccc2)CC1
0.491 nM: IC50 (second compound 0.1 µM)
0.468 nM: IC50 (second compound 0.316 µM)
active: viability, T/C [2] 0.24% | viability, T/C [3] 0.24% | viability, T/C [4] 0.06% | viability, T/C [5] 0.05% | viability, T/C [6] 0.94% | viability, T/C [8] 0.23% | viability, T/C [9] 0.12% | viability, T/C [10] 0.04% | viability, T/C [11] 0.07% | viability, T/C [12] 0.21% | viability, T/C [14] 0.24% | viability, T/C [15] 0.06% | viability, T/C [16] 0.04% | viability, T/C [17] 0.09% | viability, T/C [18] 0.2% | viability, T/C [20] 0.24% | viability, T/C [21] 0.12% | viability, T/C [22] 0.04% | viability, T/C [23] 0.06% | viability, T/C [24] 5.74% | viability, T/C [26] 4.43% | viability, T/C [27] 0.22% | viability, T/C [28] 0.39% | viability, T/C [29] 0.18% | viability, T/C [30] 0.72%
0.509 nM: IC50 (second compound 1 µM)
0.525 nM: IC50 (second compound 3.16 µM)
inactive: viability, T/C [1] 80.7% | viability, T/C [7] 75.7% | viability, T/C [13] 84.9% | viability, T/C [19] 88.1% | viability, T/C [25] 82.9%
0.512 nM: IC50 (second compound 10 µM)

CC(C)CC(NC(=O)CNC(=O)c1cc(Cl)ccc1Cl)B1OC(=O)CC(CC(=O)O)(C(=O)O)O1 (stereo not given) + NC1CCC(NC2CC2c2ccccc2)CC1
5.38 nM: IC50 (second compound 3.16 µM)
active: viability, T/C [4] 6.15% | viability, T/C [5] 0.37% | viability, T/C [6] 0.25% | viability, T/C [10] 4.86% | viability, T/C [11] 0.4% | viability, T/C [12] 0.15% | viability, T/C [16] 4.23% | viability, T/C [17] 0.34% | viability, T/C [18] 0.23% | viability, T/C [22] 5.7% | viability, T/C [23] 0.29% | viability, T/C [24] 0.28% | viability, T/C [28] 8.66% | viability, T/C [29] 0.32% | viability, T/C [30] 0.38%
5.02 nM: IC50 (second compound 0.316 µM)
4.85 nM: IC50 (second compound 10 µM)
4.9 nM: IC50 (second compound 1 µM)
5.31 nM: IC50 (second compound 0.1 µM)
inactive: viability, T/C [1] 105% | viability, T/C [2] 111% | viability, T/C [3] 85.9% | viability, T/C [7] 99.8% | viability, T/C [8] 106% | viability, T/C [9] 80.4% | viability, T/C [13] 104% | viability, T/C [14] 99.4% | viability, T/C [15] 78.2% | viability, T/C [19] 108% | viability, T/C [20] 111% | viability, T/C [21] 88% | viability, T/C [25] 103% | viability, T/C [26] 96.4% | viability, T/C [27] 74.5%

Nc1ccccc1NC(=O)c1ccc(CNC(=O)OCc2cccnc2)cc1 + NC1CCC(NC2CC2c2ccccc2)CC1
334 nM: IC50 (second compound 10 µM)
389 nM: IC50 (second compound 0.316 µM)
342 nM: IC50 (second compound 1 µM)
293 nM: IC50 (second compound 3.16 µM)
active: viability, T/C [36] 0.31% | viability, T/C [42] 0.34% | viability, T/C [48] 0.26% | viability, T/C [54] 0.24% | viability, T/C [60] 0.35%
321 nM: IC50 (second compound 0.1 µM)
inactive: viability, T/C [31] 104% | viability, T/C [32] 107% | viability, T/C [33] 86.8% | viability, T/C [34] 55.1% | viability, T/C [35] 9.73% | viability, T/C [37] 103% | viability, T/C [38] 99% | viability, T/C [39] 88.7% | viability, T/C [40] 62.8% | viability, T/C [41] 11.8% | viability, T/C [43] 98.7% | viability, T/C [44] 101% | viability, T/C [45] 84.4% | viability, T/C [46] 57% | viability, T/C [47] 12.4% | viability, T/C [49] 102% | viability, T/C [50] 101% | viability, T/C [51] 80.4% | viability, T/C [52] 52.7% | viability, T/C [53] 10.7% | viability, T/C [55] 96.8% | viability, T/C [56] 98% | viability, T/C [57] 78.2% | viability, T/C [58] 58.6% | viability, T/C [59] 10.2%

O=C(C=Cc1cccc(S(=O)(=O)Nc2ccccc2)c1)NO + NC1CCC(NC2CC2c2ccccc2)CC1
895 nM: IC50 (second compound 10 µM)
294 nM: IC50 (second compound 3.16 µM)
> 3000 nM: IC50 (second compound 0.1 µM) | IC50 (second compound 0.316 µM) | IC50 (second compound 1 µM)
inactive: viability, T/C [31] 106% | viability, T/C [32] 112% | viability, T/C [33] 88.3% | viability, T/C [34] 43.7% | viability, T/C [35] 16.5% | viability, T/C [36] 104% | viability, T/C [37] 112% | viability, T/C [38] 104% | viability, T/C [39] 90.1% | viability, T/C [40] 46.7% | viability, T/C [41] 11.5% | viability, T/C [42] 98.8% | viability, T/C [43] 96.9% | viability, T/C [44] 97.3% | viability, T/C [45] 81.4% | viability, T/C [46] 53% | viability, T/C [47] 13% | viability, T/C [48] 88% | viability, T/C [49] 99.4% | viability, T/C [50] 102% | viability, T/C [51] 84.6% | viability, T/C [52] 50.1% | viability, T/C [53] 6.88% | viability, T/C [54] 89.7% | viability, T/C [55] 99.9% | viability, T/C [56] 97.2% | viability, T/C [57] 79.5% | viability, T/C [58] 51.5% | viability, T/C [59] 11.2% | viability, T/C [60] 88%

O=C(c1cc(Cc2n[nH]c(=O)c3ccccc23)ccc1F)N1CCN(C(=O)C2CC2)CC1 + NC1CCC(NC2CC2c2ccccc2)CC1
> 10000 nM: IC50 (second compound 0.1 µM) | IC50 (second compound 0.316 µM) | IC50 (second compound 1 µM) | IC50 (second compound 3.16 µM) | IC50 (second compound 10 µM)
inactive: viability, T/C [5] 109% | viability, T/C [6] 107% | viability, T/C (second compound 0.1 µM, first compound 0.316 µM) 100% | viability, T/C (second compound 0.1 µM, first compound 1 µM) 98.6% | viability, T/C (second compound 0.1 µM, first compound 3.16 µM) 89.3% | viability, T/C (second compound 0.1 µM, first compound 10 µM) 56.6% | viability, T/C [11] 106% | viability, T/C [12] 108% | viability, T/C (second compound 0.316 µM, first compound 0.316 µM) 103% | viability, T/C (second compound 0.316 µM, first compound 1 µM) 102% | viability, T/C (second compound 0.316 µM, first compound 3.16 µM) 89% | viability, T/C (second compound 0.316 µM, first compound 10 µM) 57.8% | viability, T/C [17] 97.9% | viability, T/C [18] 99.6% | viability, T/C (second compound 1 µM, first compound 0.316 µM) 99.4% | viability, T/C (second compound 1 µM, first compound 1 µM) 94.8% | viability, T/C (second compound 1 µM, first compound 3.16 µM) 97.1% | viability, T/C (second compound 1 µM, first compound 10 µM) 54.9% | viability, T/C [23] 98.4% | viability, T/C [24] 101% | viability, T/C (second compound 3.16 µM, first compound 0.316 µM) 99.6% | viability, T/C (second compound 3.16 µM, first compound 1 µM) 102% | viability, T/C (second compound 3.16 µM, first compound 3.16 µM) 86.8% | viability, T/C (second compound 3.16 µM, first compound 10 µM) 59.5% | viability, T/C [29] 102% | viability, T/C [30] 105% | viability, T/C (second compound 10 µM, first compound 0.316 µM) 99% | viability, T/C (second compound 10 µM, first compound 1 µM) 95.3% | viability, T/C (second compound 10 µM, first compound 3.16 µM) 81.9% | viability, T/C (second compound 10 µM, first compound 10 µM) 55.9%
